Experimental data taken from publication PMC4608580, “Synthesis and Evaluation of Biological Activity of Antimicrobial – Pro-Proliferative Peptide Conjugates” (PLoS ONE, 2015).

Key:
[1] = test system: Proteus mirabilis; assay: MIC, broth microdilution; type: cell-based; settings: Mueller-Hinton broth, approximately 10^5 CFU/mL, 37°C, 24 h, absorbance 590 nm, at least triplicate
Method: Luria-Bertani broth (LB) and Sabouraud Dextrose broth (SB) (Biocorp, Poland) were used for cultivation of bacteria and fungi strains, respectively. Antimicrobial activity of peptides was analyzed through determination of MIC (minimal inhibitory concentration) parameter according to the standard microdilution technique performed on 96-well plates. Mueller-Hinton broth (MHB) was used as the working medium for all bacterial strains, while in case of fungi it was additionally supplemented with 2% glucose.
Briefly, inoculum was prepared from freshly grown cultures of microorganisms being at their exponential phase of growth. […] Then plates were incubated overnight at 37°C and absorbance was read at 590 nm after 24 h. […]
All peptides were screened against the wide range of microorganisms, including Gram-negative, Gram-positive bacteria and fungi from Candida species (Table 2). […] All assays were performed on liquid Mueller-Hinton broth, which was additionally supplemented with 2% glucose when fungicidal activity towards Candida spps. was analyzed.

[2] = test system: human primary dermal fibroblasts; assay: Cell proliferation assay (MTT); type: cell-based; settings: 72 h, serum-free DMEM, peptide at 25 and 50 μg/mL
Method: Biopsies of healthy human skin were obtained aseptically from three donors (47–69 years old) undergoing circumcision after obtaining their written informed consent. All the procedures were approved by the Ethics Committee of Medical University of Gdansk (NKEBN/483/2011. Issued: 2011-12-19). The samples were washed several times with sterile PBS (Sigma-Aldrich, Germany) containing antibiotic (200 U/mL penicillin and 200 μg/mL streptomycin), after which, the subcutaneous tissue was cut off with a sharp blade. The resulting sheets were cut into small fragments, washed two times with sterile PBS and treated with 6 U/mL dispase II (BD, USA) overnight at 4°C to separate epidermis and dermis. The dermis was then digested with 1.0 mg/mL collagenase type I (from Clostridium histolyticum Sigma-Aldrich, Germany) for 2 hours at 37°C to isolate fibroblasts. Cells were used between the 2nd and 4th passage in all experiments.
In our study two kind of cells were used: immortalized human HaCaT keratinocytes (DKFZ Heidelberg, Germany) and primary dermal fibroblasts obtained from 3 healthy donors. Both types of the used cell lines were grown in Dulbecco's modified Eagle's medium (DMEM) (Sigma–Aldrich, Germany), that contained […] of glucose, […] of L-glutamine, sodium pyruvate and sodium bicarbonate. Additionally, medium was supplemented with 10% of FCS (fetal calf serum, Sigma-Aldrich, Germany), 100 U/mL of penicillin and 100 μg/mL streptomycin (Sigma-Aldrich, Germany). The cells were grown in culture dishes (BD, USA) under standard conditions in a humidified atmosphere with 5% CO2 at 37°C and medium was changed every 2 days.
The fibroblasts and keratinocytes were seeded at density of 4500 and 6000 cells per well, respectively, into 96-well plates suspended in a medium supplemented with 10% of FCS. After 24 h the media were exchanged with serum- and antibiotic- free DMEM and tested peptides dissolved in PBS were added yielding final concentration ranging from 1 to 50 μg/mL. Cells were incubated for the next 24 hours, when the medium was exchanged again and fresh portion of peptides (used at the same concentrations as previously) was added. Incubation was continued for the next 48 hours (the overall time of cell exposition to peptide was 72 h). […] After 15 min when the purple crystals of formazan were fully solubilized, absorbance was read at 570 nm with a plate reader. […]
Fig 1 Pro-proliferative activity of the tested peptides towards human keratinocytes (A) and fibroblasts (B). […] The data represents results of MTT assay expressed as the percentage of the cell viability in comparison to their control sample (cells incubated in serum-free DMEM without tested peptides), additional positive control corresponds to the cells incubated in the presence of 10% FCS. […]

Substance	MIC P.mirabilis [1]	Effect on fibroblast viability (MTT), in words [2]
IKKILSKIKKLL-NH2 [DK5, Lys-rich derivative of amphibian AMP temporin-1CEb, …-NH2, reference compound]	NI ^a)	–
YAGFLR-PEG-IKKILSKIKKLL-NH2 [DAL-PEG-DK5, conjugate of dalargin and DK5 joined by PEG-linker]	–	lowest cell viability
YAGFLR-PEG-IKKILSKIKKLLK-NH2 [DAL-PEG-LK6, conjugate of dalargin and LK6 joined by PEG-linker]	–	lowest cell viability
